Patent publication US8822446B2, “Pyrrolopyridine inhibitors of kinases” (AbbVie Inc., priority 2010, dated 2014)
pKi: −log10 of the molar value.

What follows are molecules tested against T1, Cdc7 (BEV coexpressed huCDC7/DBF4) (Homo sapiens, UniProt O00311) (assay: Cdc7 enzyme inhibition assay ([33P]-ATP, biotinylated peptide substrate, FlashPlate)). Conditions: Ki generated from IC50 assuming ATP-competitive inhibition; 1 μM ATP, apparent ATP Km 0.7 μM; 1 hr reaction.
T1 construct: made in house; host or cells: baculovirus expression vector (BEV) co-expression
Type: biochemical
Procedure: This example describes the assays that may be used to identify compounds having kinase activity.
Cdc7 (BEV coexpressed huCDC7/DBF4) is prepared internally. Cdc7 assays are conducted as follows with final concentrations as listed. In 384-well v-bottom polypropylene plates, 6 μL compound (2% DMSO), is mixed with 6 μL of Cdc7 (2 ug/mL), and Jerini peptide substrate A-A11 (biotin-C6linker-[…]) (2 μM), followed by immediate initiation with 6 μL […] (1 μM, 20 mCi/μmol) using a reaction buffer comprising 25 mM HEPES, pH 7.5, 1 mM DTT, 10 mM MgCl2, 100 μM, Na3VO4, 0.075 mg/ml Triton X-100. Reactions are quenched after 1 hr by the addition of 90 μL stop buffer (50 mM EDTA, 2M NaCl).
Table 1 depicts enzyme inhibition data (Ki) for exemplary compounds.

T1 sequence (O00311 whole entry): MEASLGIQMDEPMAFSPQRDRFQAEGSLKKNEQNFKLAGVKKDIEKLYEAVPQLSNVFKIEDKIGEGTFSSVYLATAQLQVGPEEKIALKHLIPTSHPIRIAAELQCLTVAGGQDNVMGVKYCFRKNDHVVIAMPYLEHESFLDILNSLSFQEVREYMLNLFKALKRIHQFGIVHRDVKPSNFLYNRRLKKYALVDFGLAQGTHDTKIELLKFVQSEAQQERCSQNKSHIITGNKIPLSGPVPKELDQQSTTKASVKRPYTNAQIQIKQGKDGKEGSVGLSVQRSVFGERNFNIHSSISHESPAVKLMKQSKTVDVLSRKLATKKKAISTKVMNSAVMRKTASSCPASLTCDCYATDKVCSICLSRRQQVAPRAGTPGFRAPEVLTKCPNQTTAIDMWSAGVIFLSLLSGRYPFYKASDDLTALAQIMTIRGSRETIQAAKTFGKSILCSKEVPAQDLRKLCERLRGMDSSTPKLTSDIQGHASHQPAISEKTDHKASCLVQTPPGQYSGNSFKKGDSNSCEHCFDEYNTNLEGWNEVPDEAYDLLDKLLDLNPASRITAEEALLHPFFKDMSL
T1 sequence (Q9UBU7 whole entry partner): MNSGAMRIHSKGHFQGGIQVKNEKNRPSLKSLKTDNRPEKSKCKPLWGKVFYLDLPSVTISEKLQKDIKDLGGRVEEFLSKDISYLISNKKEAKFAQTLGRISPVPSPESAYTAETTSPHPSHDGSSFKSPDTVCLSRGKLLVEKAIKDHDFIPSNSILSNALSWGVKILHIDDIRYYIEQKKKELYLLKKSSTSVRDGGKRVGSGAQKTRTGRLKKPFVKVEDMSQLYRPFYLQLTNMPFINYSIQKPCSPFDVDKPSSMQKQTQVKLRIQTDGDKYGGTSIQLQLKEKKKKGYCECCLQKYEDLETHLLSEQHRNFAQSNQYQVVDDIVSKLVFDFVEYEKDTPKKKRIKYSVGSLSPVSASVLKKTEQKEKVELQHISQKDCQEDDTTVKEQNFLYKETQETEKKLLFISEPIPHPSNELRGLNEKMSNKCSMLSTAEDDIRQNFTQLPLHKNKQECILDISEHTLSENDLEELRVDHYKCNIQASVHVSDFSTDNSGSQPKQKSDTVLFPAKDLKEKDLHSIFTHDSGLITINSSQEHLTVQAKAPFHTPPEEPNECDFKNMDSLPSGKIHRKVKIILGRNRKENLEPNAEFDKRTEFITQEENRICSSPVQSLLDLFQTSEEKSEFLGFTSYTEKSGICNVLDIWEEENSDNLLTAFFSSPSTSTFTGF

pKi, > 8.00:
O=c1cc(-c2c[nH]c3ncccc23)cc(-c2ccc3c(c2)OCO3)[nH]1 [Example 39, 6-(1,3-benzodioxol-5-yl)-4-(1H-pyrrolo[2,3-b]pyridin-3-yl)pyridin-2(1H)-one]
O=c1cc(-c2c[nH]c3ncccc23)cc(-c2ccsc2)[nH]1 [Example 40, 4-(1H-pyrrolo[2,3-b]pyridin-3-yl)-6-(3-thienyl)pyridin-2(1H)-one]
O=c1cc(-c2c[nH]c3ncccc23)cc(-c2ccc3ccccc3c2)[nH]1 [Example 41, 6-(2-naphthyl)-4-(1H-pyrrolo[2,3-b]pyridin-3-yl)pyridin-2(1H)-one]
O=c1cc(-c2c[nH]c3ncccc23)cc(-c2cccc(Cl)c2)[nH]1 [Example 42, 6-(3-chlorophenyl)-4-(1H-pyrrolo[2,3-b]pyridin-3-yl)pyridin-2(1H)-one]
COc1cccc(-c2cc(-c3c[nH]c4ncccc34)cc(=O)[nH]2)c1OC [Example 43, 6-(2,3-dimethoxyphenyl)-4-(1H-pyrrolo[2,3-b]pyridin-3-yl)pyridin-2(1H)-one]
COc1cccc(-c2cc(-c3c[nH]c4ncccc34)cc(=O)[nH]2)c1F [Example 44, 6-(2-fluoro-3-methoxyphenyl)-4-(1H-pyrrolo[2,3-b]pyridin-3-yl)pyridin-2(1H)-one]
O=c1cc(-c2c[nH]c3ncccc23)cc(-c2ccc(Cl)cc2F)[nH]1 [Example 45, 6-(4-chloro-2-fluorophenyl)-4-(1H-pyrrolo[2,3-b]pyridin-3-yl)pyridin-2(1H)-one]
COc1ccc(C(F)(F)F)cc1-c1cc(-c2c[nH]c3ncccc23)cc(=O)[nH]1 [Example 46, 6-[2-methoxy-5-(trifluoromethyl)phenyl]-4-(1H-pyrrolo[2,3-b]pyridin-3-yl)pyridin-2(1H)-one]
COc1ncccc1-c1cc(-c2c[nH]c3ncccc23)cc(=O)[nH]1 [Example 47, 2′-methoxy-4-(1H-pyrrolo[2,3-b]pyridin-3-yl)-2,3′-bipyridin-6(1H)-one]
Cc1c(Cl)cccc1-c1cc(-c2c[nH]c3ncccc23)cc(=O)[nH]1 [Example 48, 6-(3-chloro-2-methylphenyl)-4-(1H-pyrrolo[2,3-b]pyridin-3-yl)pyridin-2(1H)-one]
COc1nccc(-c2cc(-c3c[nH]c4ncccc34)cc(=O)[nH]2)c1Cl [Example 49, 3′-chloro-2′-methoxy-4-(1H-pyrrolo[2,3-b]pyridin-3-yl)-2,4′-bipyridin-6(1H)-one]
O=c1cc(-c2c[nH]c3ncccc23)cc(-c2cccc(N3CCOCC3)c2)[nH]1 [Example 50, 6-[3-(morpholin-4-yl)phenyl]-4-(1H-pyrrolo[2,3-b]pyridin-3-yl)pyridin-2(1H)-one]
CS(=O)(=O)c1cccc(-c2cc(-c3c[nH]c4ncccc34)cc(=O)[nH]2)c1 [Example 51, 6-[3-(methylsulfonyl)phenyl]-4-(1H-pyrrolo[2,3-b]pyridin-3-yl)pyridin-2(1H)-one]
O=c1cc(-c2c[nH]c3ncccc23)cc(-c2cn[nH]c2)[nH]1 [Example 52, 6-(1H-pyrazol-4-yl)-4-(1H-pyrrolo[2,3-b]pyridin-3-yl)pyridin-2(1H)-one]
Cc1ncccc1-c1cc(-c2c[nH]c3ncccc23)cc(=O)[nH]1 [Example 53, 2′-methyl-4-(1H-pyrrolo[2,3-b]pyridin-3-yl)-2,3′-bipyridin-6(1H)-one]
COc1cccc(Nc2cc(-c3c[nH]c4ncccc34)cc(=O)[nH]2)c1 [Example 54, 6-[(3-methoxyphenyl)amino]-4-(1H-pyrrolo[2,3-b]pyridin-3-yl)pyridin-2(1H)-one]
O=c1cc(-c2c[nH]c3ncccc23)cc(Nc2ccccc2)[nH]1 [Example 55, 6-anilino-4-(1H-pyrrolo[2,3-b]pyridin-3-yl)pyridin-2(1H)-one]
N[C@H]1CC[C@H](Nc2cc(-c3c[nH]c4ncccc34)cc(=O)[nH]2)CC1 [Example 56, 6-[(trans-4-aminocyclohexyl)amino]-4-(1H-pyrrolo[2,3-b]pyridin-3-yl)pyridin-2(1H)-one]
O=c1cc(-c2c[nH]c3ncccc23)cc(N[C@H]2CC[C@H](NS(=O)(=O)C3CC3)CC2)[nH]1 [Example 57, N-(trans-4-{[6-oxo-4-(1H-pyrrolo[2,3-b]pyridin-3-yl)-1,6-dihydropyridin-2-yl]amino}cyclohexyl)cyclopropanesulfonamide]
O=C(N[C@H]1CC[C@H](Nc2cc(-c3c[nH]c4ncccc34)cc(=O)[nH]2)CC1)C1CC1 [Example 58, N-(trans-4-{[6-oxo-4-(1H-pyrrolo[2,3-b]pyridin-3-yl)-1,6-dihydropyridin-2-yl]amino}cyclohexyl)cyclopropanecarboxamide]
O=C(N[C@H]1CC[C@H](Nc2cc(-c3c[nH]c4ncccc34)cc(=O)[nH]2)CC1)C1CN(Cc2ccc(F)cc2)C1 [Example 59, 1-(4-fluorobenzyl)-N-(trans-4-{[6-oxo-4-(1H-pyrrolo[2,3-b]pyridin-3-yl)-1,6-dihydropyridin-2-yl]amino}cyclohexyl)azetidine-3-carboxamide]
Cc1ccc(-c2nc(-c3c[nH]c4ncccc34)cc(=O)[nH]2)cc1 [Example 60, 2-(4-methylphenyl)-6-(1H-pyrrolo[2,3-b]pyridin-3-yl)pyrimidin-4(3H)-one]
Cc1cccc(-c2nc(-c3c[nH]c4ncccc34)cc(=O)[nH]2)c1 [Example 61, 2-(3-methylphenyl)-6-(1H-pyrrolo[2,3-b]pyridin-3-yl)pyrimidin-4(3H)-one]
Cc1cccc(-c2nc(-c3c[nH]c4ncccc34)cc(=O)[nH]2)c1C [Example 62, 2-(2,3-dimethylphenyl)-6-(1H-pyrrolo[2,3-b]pyridin-3-yl)pyrimidin-4(3H)-one]
NCCCOc1cccc(CNc2nc(-c3c[nH]c4ncccc34)cc(=O)[nH]2)c1 [Example 63, 2-{[3-(3-aminopropoxy)benzyl]amino}-6-(1H-pyrrolo[2,3-b]pyridin-3-yl)pyrimidin-4(3H)-one]
